Tests used:
Type in all cases: in vivo
Conditions in all cases: wettable powder applied 3 days after transplanting, judged after 25 days
[1] = system: transplanted paddy-field rice; assay: Test Example 1: crop injury against transplanted paddy-field rice
How it was run: (§1)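 Herbicidal effect and rice injury were graded on a six-step growth-inhibition scale (0: 0–10% to 5: 91–100%) at 25 days after pot application of water-diluted wettable powder, given 3 days post-transplant under flooded greenhouse conditions.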

Cyperus serotinus = assay: Test Example 1: herbicidal effects, paddy-field pot test
How it was run: as §1

Scirpus joncoides = assay: as above
How it was run: as §1

[2] = system: barnyardgrass (Echinochloa oryzicola Vasing.); assay: as above
How it was run: as §1

[3] = system: annual broad-leaved weeds (Lindernia spp., Rotala indica); assay: as above
How it was run: as §1

## CC(=O)Oc1cc(Cl)nnc1Oc1ccccc1C1CC1 [Example 323]
[1]; chemical dosage 10 g/a
  Crop injury against transplanted rice: 0 (Growth inhibition rate; 0 to 10%)
[1]; chemical dosage 20 g/a
  Crop injury against transplanted rice: 0 (Growth inhibition rate; 0 to 10%)
Cyperus serotinus; chemical dosage 10 g/a
  Herbicidal effects Cyperus serotinus: 5 (Growth inhibition rate; 91 to 100%)
Cyperus serotinus; chemical dosage 20 g/a
  Herbicidal effects Cyperus serotinus: 5 (Growth inhibition rate; 91 to 100%)
Scirpus joncoides; chemical dosage 10 g/a
  Herbicidal effects Scirpus joncoides: 5 (Growth inhibition rate; 91 to 100%)
Scirpus joncoides; chemical dosage 20 g/a
  Herbicidal effects Scirpus joncoides: 5 (Growth inhibition rate; 91 to 100%)
[2]; chemical dosage 10 g/a
  Herbicidal effects Barnyard grass: 3 (Growth inhibition rate; 51 to 70%)
[2]; chemical dosage 20 g/a
  Herbicidal effects Barnyard grass: 4 (Growth inhibition rate; 71 to 90%)
[3]; chemical dosage 10 g/a
  Herbicidal effects Broad leaf: 5 (Growth inhibition rate; 91 to 100%)
[3]; chemical dosage 20 g/a
  Herbicidal effects Broad leaf: 5 (Growth inhibition rate; 91 to 100%)

## Cc1ccc2c(c1Oc1nnc(Cl)cc1O)CCC2 [Example 305]
[1]; chemical dosage 10 g/a
  Crop injury against transplanted rice: 0 (Growth inhibition rate; 0 to 10%)
Cyperus serotinus; chemical dosage 10 g/a
  Herbicidal effects Cyperus serotinus: 5 (Growth inhibition rate; 91 to 100%)
Scirpus joncoides; chemical dosage 10 g/a
  Herbicidal effects Scirpus joncoides: 5 (Growth inhibition rate; 91 to 100%)
[2]; chemical dosage 10 g/a
  Herbicidal effects Barnyard grass: 1 (Growth inhibition rate; 11 to 30%)
[3]; chemical dosage 10 g/a
  Herbicidal effects Broad leaf: 5 (Growth inhibition rate; 91 to 100%)

## Cc1cc(C)c(Br)c(Oc2nnc(Cl)cc2O)c1C [Example 319]
[1]; chemical dosage 10 g/a
  Crop injury against transplanted rice: 0 (Growth inhibition rate; 0 to 10%)
[1]; chemical dosage 20 g/a
  Crop injury against transplanted rice: 0 (Growth inhibition rate; 0 to 10%)
Cyperus serotinus; chemical dosage 10 g/a
  Herbicidal effects Cyperus serotinus: 5 (Growth inhibition rate; 91 to 100%)
Cyperus serotinus; chemical dosage 20 g/a
  Herbicidal effects Cyperus serotinus: 5 (Growth inhibition rate; 91 to 100%)
Scirpus joncoides; chemical dosage 10 g/a
  Herbicidal effects Scirpus joncoides: 5 (Growth inhibition rate; 91 to 100%)
Scirpus joncoides; chemical dosage 20 g/a
  Herbicidal effects Scirpus joncoides: 5 (Growth inhibition rate; 91 to 100%)
[2]; chemical dosage 10 g/a
  Herbicidal effects Barnyard grass: 2 (Growth inhibition rate; 31 to 50%)
[2]; chemical dosage 20 g/a
  Herbicidal effects Barnyard grass: 3 (Growth inhibition rate; 51 to 70%)
[3]; chemical dosage 10 g/a
  Herbicidal effects Broad leaf: 5 (Growth inhibition rate; 91 to 100%)
[3]; chemical dosage 20 g/a
  Herbicidal effects Broad leaf: 5 (Growth inhibition rate; 91 to 100%)

## CCc1cccc(C)c1Oc1nnc(Cl)cc1O [Example 260]
[1]; chemical dosage 10 g/a
  Crop injury against transplanted rice: 0 (Growth inhibition rate; 0 to 10%)
[1]; chemical dosage 20 g/a
  Crop injury against transplanted rice: 0 (Growth inhibition rate; 0 to 10%)
Cyperus serotinus; chemical dosage 10 g/a
  Herbicidal effects Cyperus serotinus: 5 (Growth inhibition rate; 91 to 100%)
Cyperus serotinus; chemical dosage 20 g/a
  Herbicidal effects Cyperus serotinus: 5 (Growth inhibition rate; 91 to 100%)
Scirpus joncoides; chemical dosage 10 g/a
  Herbicidal effects Scirpus joncoides: 5 (Growth inhibition rate; 91 to 100%)
Scirpus joncoides; chemical dosage 20 g/a
  Herbicidal effects Scirpus joncoides: 5 (Growth inhibition rate; 91 to 100%)
[2]; chemical dosage 10 g/a
  Herbicidal effects Barnyard grass: 2 (Growth inhibition rate; 31 to 50%)
[2]; chemical dosage 20 g/a
  Herbicidal effects Barnyard grass: 3 (Growth inhibition rate; 51 to 70%)
[3]; chemical dosage 10 g/a
  Herbicidal effects Broad leaf: 5 (Growth inhibition rate; 91 to 100%)
[3]; chemical dosage 20 g/a
  Herbicidal effects Broad leaf: 5 (Growth inhibition rate; 91 to 100%)

## CCOc1cccc(C2CC2)c1Oc1nnc(Cl)cc1O [Example 277]
[1]; chemical dosage 10 g/a
  Crop injury against transplanted rice: 0 (Growth inhibition rate; 0 to 10%)
[1]; chemical dosage 20 g/a
  Crop injury against transplanted rice: 0 (Growth inhibition rate; 0 to 10%)
Cyperus serotinus; chemical dosage 10 g/a
  Herbicidal effects Cyperus serotinus: 5 (Growth inhibition rate; 91 to 100%)
Cyperus serotinus; chemical dosage 20 g/a
  Herbicidal effects Cyperus serotinus: 5 (Growth inhibition rate; 91 to 100%)
Scirpus joncoides; chemical dosage 20 g/a
  Herbicidal effects Scirpus joncoides: 5 (Growth inhibition rate; 91 to 100%)
[2]; chemical dosage 10 g/a
  Herbicidal effects Barnyard grass: 0 (Growth inhibition rate; 0 to 10%)
[2]; chemical dosage 20 g/a
  Herbicidal effects Barnyard grass: 1 (Growth inhibition rate; 11 to 30%)
[3]; chemical dosage 10 g/a
  Herbicidal effects Broad leaf: 5 (Growth inhibition rate; 91 to 100%)
[3]; chemical dosage 20 g/a
  Herbicidal effects Broad leaf: 5 (Growth inhibition rate; 91 to 100%)

## CC1CC1c1ccccc1Oc1nnc(Cl)cc1O (centres unmarked) [Example 72]
[1]; chemical dosage 10 g/a
  Crop injury against transplanted rice: 0 (Growth inhibition rate; 0 to 10%)
[1]; chemical dosage 20 g/a
  Crop injury against transplanted rice: 0 (Growth inhibition rate; 0 to 10%)
Cyperus serotinus; chemical dosage 10 g/a
  Herbicidal effects Cyperus serotinus: 4 (Growth inhibition rate; 71 to 90%)
Cyperus serotinus; chemical dosage 20 g/a
  Herbicidal effects Cyperus serotinus: 5 (Growth inhibition rate; 91 to 100%)
Scirpus joncoides; chemical dosage 10 g/a
  Herbicidal effects Scirpus joncoides: 5 (Growth inhibition rate; 91 to 100%)
Scirpus joncoides; chemical dosage 20 g/a
  Herbicidal effects Scirpus joncoides: 5 (Growth inhibition rate; 91 to 100%)
[2]; chemical dosage 10 g/a
  Herbicidal effects Barnyard grass: 3 (Growth inhibition rate; 51 to 70%)
[2]; chemical dosage 20 g/a
  Herbicidal effects Barnyard grass: 3 (Growth inhibition rate; 51 to 70%)
[3]; chemical dosage 10 g/a
  Herbicidal effects Broad leaf: 5 (Growth inhibition rate; 91 to 100%)
[3]; chemical dosage 20 g/a
  Herbicidal effects Broad leaf: 5 (Growth inhibition rate; 91 to 100%)

## CC(C)c1ccccc1Oc1nnc(Cl)cc1O [Example 57]
[1]; chemical dosage 12.5 g/a
  Crop injury against transplanted rice: 0 (Growth inhibition rate; 0 to 10%)
[1]; chemical dosage 25 g/a
  Crop injury against transplanted rice: 0 (Growth inhibition rate; 0 to 10%)
Cyperus serotinus; chemical dosage 12.5 g/a
  Herbicidal effects Cyperus serotinus: 5 (Growth inhibition rate; 91 to 100%)
Cyperus serotinus; chemical dosage 25 g/a
  Herbicidal effects Cyperus serotinus: 5 (Growth inhibition rate; 91 to 100%)
Scirpus joncoides; chemical dosage 12.5 g/a
  Herbicidal effects Scirpus joncoides: 3 (Growth inhibition rate; 51 to 70%)
Scirpus joncoides; chemical dosage 25 g/a
  Herbicidal effects Scirpus joncoides: 4 (Growth inhibition rate; 71 to 90%)
[2]; chemical dosage 12.5 g/a
  Herbicidal effects Barnyard grass: 2 (Growth inhibition rate; 31 to 50%)
[2]; chemical dosage 25 g/a
  Herbicidal effects Barnyard grass: 2 (Growth inhibition rate; 31 to 50%)
[3]; chemical dosage 12.5 g/a
  Herbicidal effects Broad leaf: 5 (Growth inhibition rate; 91 to 100%)
[3]; chemical dosage 25 g/a
  Herbicidal effects Broad leaf: 5 (Growth inhibition rate; 91 to 100%)

## CCc1ccccc1Oc1nnc(Cl)cc1O [Example 55]
[1]; chemical dosage 12.5 g/a
  Crop injury against transplanted rice: 0 (Growth inhibition rate; 0 to 10%)
[1]; chemical dosage 25 g/a
  Crop injury against transplanted rice: 0 (Growth inhibition rate; 0 to 10%)
Cyperus serotinus; chemical dosage 12.5 g/a
  Herbicidal effects Cyperus serotinus: 5 (Growth inhibition rate; 91 to 100%)
Cyperus serotinus; chemical dosage 25 g/a
  Herbicidal effects Cyperus serotinus: 5 (Growth inhibition rate; 91 to 100%)
Scirpus joncoides; chemical dosage 12.5 g/a
  Herbicidal effects Scirpus joncoides: 3 (Growth inhibition rate; 51 to 70%)
Scirpus joncoides; chemical dosage 25 g/a
  Herbicidal effects Scirpus joncoides: 4 (Growth inhibition rate; 71 to 90%)
[2]; chemical dosage 12.5 g/a
  Herbicidal effects Barnyard grass: 2 (Growth inhibition rate; 31 to 50%)
[2]; chemical dosage 25 g/a
  Herbicidal effects Barnyard grass: 2 (Growth inhibition rate; 31 to 50%)
[3]; chemical dosage 12.5 g/a
  Herbicidal effects Broad leaf: 5 (Growth inhibition rate; 91 to 100%)
[3]; chemical dosage 25 g/a
  Herbicidal effects Broad leaf: 5 (Growth inhibition rate; 91 to 100%)

## Oc1cc(Cl)nnc1Oc1c(Cl)cccc1I [Example 241]
[1]; chemical dosage 10 g/a
  Crop injury against transplanted rice: 0 (Growth inhibition rate; 0 to 10%)
[1]; chemical dosage 20 g/a
  Crop injury against transplanted rice: 0 (Growth inhibition rate; 0 to 10%)
Cyperus serotinus; chemical dosage 10 g/a
  Herbicidal effects Cyperus serotinus: 5 (Growth inhibition rate; 91 to 100%)
Cyperus serotinus; chemical dosage 20 g/a
  Herbicidal effects Cyperus serotinus: 5 (Growth inhibition rate; 91 to 100%)
Scirpus joncoides; chemical dosage 10 g/a
  Herbicidal effects Scirpus joncoides: 3 (Growth inhibition rate; 51 to 70%)
Scirpus joncoides; chemical dosage 20 g/a
  Herbicidal effects Scirpus joncoides: 4 (Growth inhibition rate; 71 to 90%)
[2]; chemical dosage 10 g/a
  Herbicidal effects Barnyard grass: 1 (Growth inhibition rate; 11 to 30%)
[2]; chemical dosage 20 g/a
  Herbicidal effects Barnyard grass: 3 (Growth inhibition rate; 51 to 70%)
[3]; chemical dosage 10 g/a
  Herbicidal effects Broad leaf: 5 (Growth inhibition rate; 91 to 100%)
[3]; chemical dosage 20 g/a
  Herbicidal effects Broad leaf: 5 (Growth inhibition rate; 91 to 100%)

## CCc1ccc2c(c1Oc1nnc(Cl)cc1O)CCC2 [Example 306]
[1]; chemical dosage 10 g/a
  Crop injury against transplanted rice: 0 (Growth inhibition rate; 0 to 10%)
Cyperus serotinus; chemical dosage 10 g/a
  Herbicidal effects Cyperus serotinus: 5 (Growth inhibition rate; 91 to 100%)
Scirpus joncoides; chemical dosage 10 g/a
  Herbicidal effects Scirpus joncoides: 5 (Growth inhibition rate; 91 to 100%)
[2]; chemical dosage 10 g/a
  Herbicidal effects Barnyard grass: 1 (Growth inhibition rate; 11 to 30%)
[3]; chemical dosage 10 g/a
  Herbicidal effects Broad leaf: 5 (Growth inhibition rate; 91 to 100%)

## Cc1cc(Oc2nnc(Cl)cc2O)cc(C(C)C)c1 [Example 282]
[1]; chemical dosage 12.5 g/a
  Crop injury against transplanted rice: 0 (Growth inhibition rate; 0 to 10%)
[1]; chemical dosage 25 g/a
  Crop injury against transplanted rice: 0 (Growth inhibition rate; 0 to 10%)
Cyperus serotinus; chemical dosage 12.5 g/a
  Herbicidal effects Cyperus serotinus: 4 (Growth inhibition rate; 71 to 90%)
Cyperus serotinus; chemical dosage 25 g/a
  Herbicidal effects Cyperus serotinus: 5 (Growth inhibition rate; 91 to 100%)
Scirpus joncoides; chemical dosage 12.5 g/a
  Herbicidal effects Scirpus joncoides: 3 (Growth inhibition rate; 51 to 70%)
Scirpus joncoides; chemical dosage 25 g/a
  Herbicidal effects Scirpus joncoides: 4 (Growth inhibition rate; 71 to 90%)
[2]; chemical dosage 12.5 g/a
  Herbicidal effects Barnyard grass: 0 (Growth inhibition rate; 0 to 10%)
[2]; chemical dosage 25 g/a
  Herbicidal effects Barnyard grass: 0 (Growth inhibition rate; 0 to 10%)
[3]; chemical dosage 12.5 g/a
  Herbicidal effects Broad leaf: 5 (Growth inhibition rate; 91 to 100%)
[3]; chemical dosage 25 g/a
  Herbicidal effects Broad leaf: 5 (Growth inhibition rate; 91 to 100%)

## Cc1cc(C)c(C)c(Oc2nnc(Cl)cc2O)c1C [Example 320]
[1]; chemical dosage 12.5 g/a
  Crop injury against transplanted rice: 0 (Growth inhibition rate; 0 to 10%)
[1]; chemical dosage 25 g/a
  Crop injury against transplanted rice: 0 (Growth inhibition rate; 0 to 10%)
Cyperus serotinus; chemical dosage 12.5 g/a
  Herbicidal effects Cyperus serotinus: 5 (Growth inhibition rate; 91 to 100%)
Cyperus serotinus; chemical dosage 25 g/a
  Herbicidal effects Cyperus serotinus: 5 (Growth inhibition rate; 91 to 100%)
Scirpus joncoides; chemical dosage 12.5 g/a
  Herbicidal effects Scirpus joncoides: 5 (Growth inhibition rate; 91 to 100%)
Scirpus joncoides; chemical dosage 25 g/a
  Herbicidal effects Scirpus joncoides: 5 (Growth inhibition rate; 91 to 100%)
[2]; chemical dosage 12.5 g/a
  Herbicidal effects Barnyard grass: 1 (Growth inhibition rate; 11 to 30%)
[2]; chemical dosage 25 g/a
  Herbicidal effects Barnyard grass: 2 (Growth inhibition rate; 31 to 50%)
[3]; chemical dosage 12.5 g/a
  Herbicidal effects Broad leaf: 5 (Growth inhibition rate; 91 to 100%)
[3]; chemical dosage 25 g/a
  Herbicidal effects Broad leaf: 5 (Growth inhibition rate; 91 to 100%)

## Cc1ccc(Br)c(Oc2nnc(Cl)cc2O)c1C [Example 294]
[1]; chemical dosage 10 g/a
  Crop injury against transplanted rice: 0 (Growth inhibition rate; 0 to 10%)
[1]; chemical dosage 20 g/a
  Crop injury against transplanted rice: 0 (Growth inhibition rate; 0 to 10%)
Cyperus serotinus; chemical dosage 10 g/a
  Herbicidal effects Cyperus serotinus: 5 (Growth inhibition rate; 91 to 100%)
Cyperus serotinus; chemical dosage 20 g/a
  Herbicidal effects Cyperus serotinus: 5 (Growth inhibition rate; 91 to 100%)
Scirpus joncoides; chemical dosage 10 g/a
  Herbicidal effects Scirpus joncoides: 5 (Growth inhibition rate; 91 to 100%)
Scirpus joncoides; chemical dosage 20 g/a
  Herbicidal effects Scirpus joncoides: 5 (Growth inhibition rate; 91 to 100%)
[2]; chemical dosage 10 g/a
  Herbicidal effects Barnyard grass: 1 (Growth inhibition rate; 11 to 30%)
[2]; chemical dosage 20 g/a
  Herbicidal effects Barnyard grass: 2 (Growth inhibition rate; 31 to 50%)
[3]; chemical dosage 10 g/a
  Herbicidal effects Broad leaf: 5 (Growth inhibition rate; 91 to 100%)
[3]; chemical dosage 20 g/a
  Herbicidal effects Broad leaf: 5 (Growth inhibition rate; 91 to 100%)

— patent publication US7964531B2, “3-phenoxy-4-pyridazinol derivatives and herbicidal composition containing the same” (Mitsui Chemicals Agro, Inc., priority 2001, dated 2011)
